Assay results: patent publication US20240285727A1, “NOVEL THERAPEUTIC PEPTIDES FOR NEURODEGENERATION” (UNIVERSITY OF SOUTHERN CALIFORNIA, priority 2021, published 2024)
Ends that are not written are not given here.

What was measured:
SH-SY5Y cells [1] = test: Amyloid beta toxicity assay (LIVE/DEAD viability); type: cell-based; conditions: neuronal cells stressed with oligomerized amyloid beta 42 (1 uM); 10 uM peptide
Procedure: SH-SY5Y cells were differentiated for 4 days, incubated with 10 uM SHMOOSE or SHMOOSE.D47N for 24 hours followed by another incubation with SHMOOSE or SHMOOSE.D47N with or without oligomerized 1 uM amyloid beta 42 (CPC Scientific), prepared as formerly described. A two-color fluorescence cell viability assay (LIVE/DEAD Viability/Cytotoxicity Kit; Invitrogen (cat. L3224) was used to distinguish live cells from dead cells after […] and amyloid beta 42 treatment. The ratio of live to dead cells can be quantified since live cells retain the Calcein AM dye and dead cells with damaged membranes permit entry of the ethidium homodimer dye.

SH-SY5Y cells [2] = test: Seahorse assay (oxygen consumption rate); type: cell-based
Procedure: SH-SY5Y Cells were Plated into 96-Well Plates at a Density of 10,000 Cells. The following day, cells were differentiated for a total of 4 days. Thereafter, SHMOOSE or SHMOOSE.D47N were incubated for 24 hours, followed by cell real-time oxygen consumption rates measurements using XF96 Extracellular Flux Analyzer (Seahorse Bioscience). ATP turnover and maximum respiratory capacity were calculated after challenging cells with oligomycin and FCCP (carbonyl cyanide 4-[trifluoromethoxy]phenylhydrazone). Additionally, glycolytic rate was determined using extracellular acidification rate (ECAR) and individually reported relative to basal level in percentage. All readings were normalized to total DNA content using Hoechst 33342.

mitofilin = target: T1, mitofilin (Homo sapiens, UniProt Q16891); test: SHMOOSE-mitofilin protein interaction (co-immunoprecipitation, reciprocal dot blot); type: binding; conditions: reciprocal dot-based immunoblots, recombinant proteins
T1 construct: purchased OriGene
T1 sequence (Q16891 34-758): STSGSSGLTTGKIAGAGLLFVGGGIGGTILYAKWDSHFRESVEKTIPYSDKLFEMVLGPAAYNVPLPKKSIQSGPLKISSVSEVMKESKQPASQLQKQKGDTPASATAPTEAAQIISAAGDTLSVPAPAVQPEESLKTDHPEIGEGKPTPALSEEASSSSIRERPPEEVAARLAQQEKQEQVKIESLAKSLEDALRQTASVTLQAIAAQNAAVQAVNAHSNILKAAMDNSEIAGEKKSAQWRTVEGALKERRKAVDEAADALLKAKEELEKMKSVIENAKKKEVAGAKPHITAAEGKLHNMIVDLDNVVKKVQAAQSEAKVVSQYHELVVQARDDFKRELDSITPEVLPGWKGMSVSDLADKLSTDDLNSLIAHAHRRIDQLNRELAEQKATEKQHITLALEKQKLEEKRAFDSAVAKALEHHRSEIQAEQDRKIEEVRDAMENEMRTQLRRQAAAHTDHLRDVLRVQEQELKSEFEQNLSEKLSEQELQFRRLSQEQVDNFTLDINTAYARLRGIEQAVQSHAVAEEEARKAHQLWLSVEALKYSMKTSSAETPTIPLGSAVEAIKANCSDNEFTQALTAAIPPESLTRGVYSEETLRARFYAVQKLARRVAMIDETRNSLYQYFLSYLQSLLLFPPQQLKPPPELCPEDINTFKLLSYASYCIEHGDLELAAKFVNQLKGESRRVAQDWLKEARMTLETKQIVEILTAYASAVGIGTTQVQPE
Procedure: To identify the SHMOOSE interactome, multiple experiments were conducted. First, 1.5 nmol of SHMOOSE was spiked into 1 mg SH-SY5Y cell lysate for 6 hours at 4° C. Lysates were prepared using Thermo Pierce CoIP lysis buffer with 1× Thermo protease inhibitor cocktail and 1 mM PMSF. Briefly, cells were washed with ice-cold DPBS twice, lysed for 15 minutes on ice, and centrifuged for 10 minutes at 12,000 RCF at 4° C. The rationale for conducting this experiment was to ensure identical protein amounts between conditions and avoid differential protein expression caused by SHMOOSE treatment to cells. After 6 hours, SHMOOSE was immunoprecipitated from samples using Dynabeads A conjugated to 5 ug of custom c-terminus SHMOOSE antibody. As a negative control, SHMOOSE-spiked lysates were also immunoprecipitated using 5 ug rabbit IgG. Proteins were eluted from beads using 50 mM Glycine pH 2.8, and eluents were pH neutralized using Tris HCl pH 7.5. Complete eluents were then processed for protein identification using LC-MS. […] Statistical analysis of MaxQuant label-free quantitation data was performed with the artMS Bioconductor package, which performs the relative quantification of protein abundance using the MSstats Bioconductor package (default parameters). […]

[3] = test system: C57BL/6J mice fed a high fat diet; test: SHMOOSE in vivo: daily IP injections to mice fed a high fat diet, two weeks; parameters: species or system mouse
Description: The inventors also injected SHMOOSE intraperitoneally (IP) to 12-week-old C57BL/6J mice fed a high fat diet (i.e., a mild metabolic perturbation). At the conclusion of the two-week study, the inventors harvested brain and liver for RNA-Seq. As the inventors observed for SHMOOSE.D47N carriers and in in vitro experiments, 367 differentially expressed genes under a p adjusted value of 0.05 enriched mitochondrial and ribosomal terms in the liver (FIG. 3C). That is, liver expression differences were observed after SHMOOSE IP injections. Brain hypothalamus expression differences were also observed after SHMOOSE IP injections. Further, cortical expression differences were observed after SHMOOSE IP injections. However, while the inventors observed global gene expression changes as illustrated by PCA in the mouse cortex and hypothalamus, most enriched terms included central nervous system-related terms, not ribosomes nor mitochondrial specifics (FIG. 17). Furthermore, brain hippocampus expression differences were observed after SHMOOSE IP injections.
To examine the transcriptomes of mice treated with SHMOOSE, 12-week-old male […] mice were obtained from The Jackson Laboratory. Mice were fed a high fat diet for 10 days (60% total calories) prior to initiation of SHMOOSE daily IP injections (2.5 mg/kg). No more than 60 ul of volume were injected IP. […]

[4] = SHMOOSE pharmacokinetics after intraperitoneal injection; type: in vivo, mouse; conditions: IP injected mice
Procedure: SHMOOSE pharmacokinetics was studied, where 2.5 mg SHMOOSE/kg in 25-week old C57/BI6 mice were intraperitoneally injected.

SHSY5Y = test: Analogue screening assay, measured by MTT; type: cell-based; conditions: as a percentage compared to SHMOOSE (SHMOOSE activity as 100%)
Description: FIG. 10 depicts an analogue screening assay, measured by MTT. Top: each bar represents a fragment (25-amino acid in length) of SHMOOSE. Bottom: each bar represents a phosphomimetic fragment (25-amino acid in length) of SHMOOSE. Cell model is SHSY5Y. The Inventors made 103 analogues/derivatives (see Table 1).
The Inventors made 103 analogues (Table 1). Referring to FIG. 10, in the top figure, each bar represents a 25-amino acid fragment of the SHMOOSE peptide. […] The sequence length of the analogue is 14 amino acids and 3 different analysis windows of the analogue, each having 11 amino acids, were characterized. […]

[5] = target: the molecule itself; test: Western blot of subcellular fractions of SHMOOSE-treated SH-SY5Y cells (FIG. 4A)
Procedure: Cytosolic, nuclear, and mitochondrial fractions were prepared from cultured SH-SY5Y cells. To extract nuclei, cells were washed in ice-cold DPBS and resuspended in fractionation buffer containing 10 mM HEPES pH 7.6, 3 mM MgCl2, 10 mM KCl, 5% (v/v) glycerol, 1% Triton-X100, and protease/phosphatase inhibitors for 15 minutes, followed by centrifugation for 5 minutes at 250×g and 4° C. The resulting supernatant was further centrifuged once more at 18,000×g for 10 minutes at 4° C. to obtain a relatively pure cytoplasmic fraction. The original pellet prior to the 18,000×g centrifugation was washed in 10 mM HEPES pH 7.6, 1.5 mM MgCl2, 10 mM KCl, and protease/phosphatase inhibitors and centrifuged at 250×g and 4° C. The washed pellet was then resuspended in nuclear extraction buffer containing 20 mM HEPES pH 7.6, 1.5 mM MgCl2, 420 mM NaCl, 25% (v/v) glycerol, 0.2 mM EDTA, and protease/phosphatase inhibitors, followed by three sonication periods of 5 seconds (separated by 10 seconds) with 30% amplitude on ice. The sonicated pellet was centrifuged at 18,000×g for 10 minutes at 4° C. to obtain a relatively pure nuclear lysate. To extract mitochondria, cells were washed in ice-cold DPBS and resuspended in 2 ml hypotonic buffer containing 10 mM NaCl, 1.5 mM MgCl2, and 10 mM Tris-HCl pH 7.5 for 7.5 minutes. […]

ATP5A1 = ATP5A1 (UniProt P25705 44-553, limits assumed); test: binding of SHMOOSE to ATP5 subunits (FIG. 9C/9D); method not described
ATP5A1, sequence (P25705 44-553 limits assumed): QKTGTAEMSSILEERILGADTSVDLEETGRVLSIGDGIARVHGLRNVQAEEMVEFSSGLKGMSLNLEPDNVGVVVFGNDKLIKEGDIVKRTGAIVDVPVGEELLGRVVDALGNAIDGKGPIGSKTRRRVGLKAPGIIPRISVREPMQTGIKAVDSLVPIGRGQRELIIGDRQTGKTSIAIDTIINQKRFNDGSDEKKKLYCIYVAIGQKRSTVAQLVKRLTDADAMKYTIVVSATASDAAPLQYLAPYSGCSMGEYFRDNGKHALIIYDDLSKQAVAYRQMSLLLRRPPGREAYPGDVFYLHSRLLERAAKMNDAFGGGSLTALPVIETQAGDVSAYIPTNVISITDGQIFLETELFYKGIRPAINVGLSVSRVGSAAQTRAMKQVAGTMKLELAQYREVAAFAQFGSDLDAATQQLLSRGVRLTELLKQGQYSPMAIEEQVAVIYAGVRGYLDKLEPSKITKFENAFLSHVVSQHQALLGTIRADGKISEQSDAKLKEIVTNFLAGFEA

Q: Which results are given for “MPPCLTTWLSQLLKDNSYPLVLGPKNFGATPNKSNNHAHYYNHPNPNFPNSPHPYHPR [SHMOOSE.D47N]”?
A: protection against cell death (SH-SY5Y cells [1]): did not similarly protect cells; basal cell oxygen consumption rate (in words) (SH-SY5Y cells [2]): but not mutant SHMOOSE.D47N, boosts basal cell oxygen consumption rate; mitochondrial spare capacity (SH-SY5Y cells [2]; after oligomycin and FCCP, 24 hours incubation): boosted mitochondrial spare capacity; binding to mitofilin (mitofilin): confirming binding

Q: What does the source list for “MPPCLTTWLSQLLKDNSYPLVLGPKNFGATPNKSNNHAHYYNHPNPDFPNSPHPYHPR [SHMOOSE]”?
A: toxic effects and behavior changes [3]: did not display toxic effects nor behavior changes; entry into circulation [4]: goes into the blood stream; half-life [4]: strong half-life

Q: For “2 (PPCLTTWLSQLLKDNSYPLVLGPKN) [compound 2]”, which “% Efficacy” value (SHSY5Y) is on record?
A: The value was 37.99%.

B1: SHMOOSE (Small Human Mitochondrial Open reading frame Over the SErine-tRNA) peptide (peptide)
peptide: MPPCLTTWLSQLLKDNSYPLVLGPKNFGATPNKSNNHAHYYNHPNPDFPNSPHPYHPR
notes: Endogenous SHMOOSE in Western blots is treated as the same molecule; also called wild type SHMOOSE; synthetic SHMOOSE
Q: Which results are given for B1?
A: binding result [5]: binds; binding result (ATP5A1): no binding
